Assay results from patent US6355799B1, “Substituted benzene compounds, process for their preparation, and herbicidal and defoliant compositions containing them” (ISK Americas Incorporated, priority 1997, dated 2002).

What was measured:
Type in all cases: in vivo
[1] = test system: large crabgrass (Digitaria sanguinalis, DIGSA); experiment: Pre-emerge test, greenhouse herbicide activity screening; conditions: pre-emerge, 14 days after application, scale 0-100
Summary of the method: (§1)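 Compounds in acetone were track-sprayed at 15–1000 g ai/ha: pre-emergence onto soil sown the previous day, then top-watered to incorporate and later bottom-watered; post-emergence onto 2–3 leaf plants with 0.25% v/v surfactant, bottom-watered only. Ratings on a 0–100 phytotoxicity scale were taken at day 14.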

[2] = test system: barnyardgrass (Echinochloa crus-galli, ECHCG); experiment: as above; conditions: pre-emerge, 14 days after application, scale 0-100
Summary of the method: as §1

[3] = test system: green foxtail (Setaria viridis, SETVI); experiment: as above; conditions: pre-emerge, 14 days after application, scale 0-100
Summary of the method: as §1

[4] = test system: ivyleaf morningglory (Ipomoea hederacea, IPOHE); experiment: as above; conditions: pre-emerge, 14 days after application, scale 0-100
Summary of the method: as §1

[5] = test system: velvetleaf (Abutilon theophrasti, ABUTH); experiment: as above; conditions: pre-emerge, 14 days after application, scale 0-100
Summary of the method: as §1

[6] = test system: lambsquarters (Chenopodium album, CHEAL); experiment: as above; conditions: pre-emerge, 14 days after application, scale 0-100
Summary of the method: as §1

[7] = test system: sicklepod (Cassia obtusifolia, CASOB); experiment: as above; conditions: pre-emerge, 14 days after application, scale 0-100
Summary of the method: as §1

[8] = test system: johnsongrass (Sorghum halepense, SORHA); experiment: as above; conditions: pre-emerge, 14 days after application, scale 0-100
Summary of the method: as §1

[9] = test system: field corn (Zea mays L., var. Dekalb 535, CORN); experiment: Post-emerge test, crop safety; conditions: post-emerge, 14 days after application, rating scale 0-100
Summary of the method: (§2)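 Rating: 0–100 visual injury, 14 DAA. Application: acetone, 187 l/ha, 15–1000 g ai/ha, flat-fan track sprayer with nozzle 40–45 cm above soil or canopy. Post-emerge runs used 0.25% v/v surfactant on 2–3 leaf plants.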

[10] = test system: upland rice (Oryza sp., var. Tebonnet, RICE); experiment: Post-emerge test, crop safety; conditions: post-emerge, 14 days after application, rating scale 0-100
Summary of the method: as §2

[11] = test system: redroot pigweed (Amaranthus retroflexus, AMARE); experiment: Pre-emerge test, greenhouse herbicide activity screening; conditions: pre-emerge, 14 days after application, scale 0-100
Summary of the method: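 Compounds in acetone were track-sprayed at 187 l/ha, 15–1000 g ai/ha, onto sandy loam pots. Pre-emerge seeds were sown one day before spraying, with surface watering afterwards. Post-emerge plants were at the 2–3 leaf stage and sprayed with 0.25% v/v non-ionic surfactant. Injury was rated 0–100 at 14 days.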

[12] = test system: field corn (Zea mays L., var. Dekalb 535, CORN); experiment: Pre-emerge test, crop safety; conditions: pre-emerge, 14 days after application, scale 0-100
Summary of the method: as §2

[13] = test system: upland rice (Oryza sp., var. Tebonnet, RICE); experiment: Pre-emerge test, crop safety; conditions: pre-emerge, 14 days after application, scale 0-100
Summary of the method: as §2

[14] = test system: large crabgrass (Digitaria sanguinalis, DIGSA); experiment: Post-emerge test, greenhouse herbicide activity screening; conditions: post-emerge, 14 days after application, rating scale 0-100
Summary of the method: (§3)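 Plants grown in 10 cm pots of sandy loam mix received acetone-dissolved compounds through a moving flat-fan nozzle. Doses ranged from 15 to 1000 g ai/ha. Pre-emerge pots were seeded one day earlier, post-emerge pots 8–21 days earlier. Fourteen days on, each pot was graded 0–100 for damage.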

[15] = test system: common ragweed (Ambrosia artemisizfolia L., AMBEL); experiment: as above; conditions: post-emerge, 14 days after application, rating scale 0-100
Summary of the method: as §3

[16] = test system: barnyardgrass (Echinochloa crus-galli, ECHCG); experiment: as above; conditions: post-emerge, 14 days after application, rating scale 0-100
Summary of the method: as §3

[17] = test system: green foxtail (Setaria viridis, SETVI); experiment: as above; conditions: post-emerge, 14 days after application, rating scale 0-100
Summary of the method: as §3

[18] = test system: ivyleaf morningglory (Ipomoea hederacea, IPOHE); experiment: as above; conditions: post-emerge, 14 days after application, rating scale 0-100
Summary of the method: as §3

[19] = test system: velvetleaf (Abutilon theophrasti, ABUTH); experiment: as above; conditions: post-emerge, 14 days after application, rating scale 0-100
Summary of the method: as §3

[20] = test system: lambsquarters (Chenopodium album, CHEAL); experiment: as above; conditions: post-emerge, 14 days after application, rating scale 0-100
Summary of the method: as §3

[21] = test system: sicklepod (Cassia obtusifolia, CASOB); experiment: as above; conditions: post-emerge, 14 days after application, rating scale 0-100
Summary of the method: as §3

[22] = test system: johnsongrass (Sorghum halepense, SORHA); experiment: as above; conditions: post-emerge, 14 days after application, rating scale 0-100
Summary of the method: as §3

[23] = test system: redroot pigweed (Amaranthus retroflexus, AMARE); experiment: as above; conditions: post-emerge, 14 days after application, rating scale 0-100
Summary of the method: as §3

CCSCC(=O)Nc1c(OC)c(Cl)cc(F)c1-n1c(=O)cc(C(F)(F)F)n(C)c1=O [2-172] was tested, and the “phytotoxicity rating DIGSA” value ([1]; 63 g ai/ha) was 20, the “phytotoxicity rating DIGSA” value ([1]; 250 g ai/ha) was 100 and the “phytotoxicity rating ECHCG” value ([2]; 63 g ai/ha) was 0. For the same compound, the “phytotoxicity rating ECHCG” value ([2]; 250 g ai/ha) was 60, the “phytotoxicity rating SETVI” value ([3]; 63 g ai/ha) was 20 and the “phytotoxicity rating SETVI” value ([3]; 250 g ai/ha) was 65. For the same compound, the “phytotoxicity rating IPOHE” value ([4]; 63 g ai/ha) was 60, the “phytotoxicity rating IPOHE” value ([4]; 250 g ai/ha) was 95 and the “phytotoxicity rating ABUTH” value ([5]; 63 g ai/ha) was 90. For the same compound, the “phytotoxicity rating ABUTH” value ([5]; 250 g ai/ha) was 100, the “phytotoxicity rating CHEAL” value ([6]; 63 g ai/ha) was 30 and the “phytotoxicity rating CHEAL” value ([6]; 250 g ai/ha) was 100. The “phytotoxicity rating CASOB” value ([7]; 63 g ai/ha) was 20, the “phytotoxicity rating CASOB” value ([7]; 250 g ai/ha) was 80 and the “phytotoxicity rating SORHA” value ([8]; 63 g ai/ha) was 0. For the same compound, the “phytotoxicity rating SORHA” value ([8]; 250 g ai/ha) was 40, the “CORN phytotoxicity rating (crop damage)” value ([9]; 63 g ai/ha) was 5 and the “CORN phytotoxicity rating (crop damage)” value ([9]; 250 g ai/ha) was 10. For the same compound, the “RICE phytotoxicity rating (crop damage)” value ([10]; 63 g ai/ha) was 0, the “RICE phytotoxicity rating (crop damage)” value ([10]; 250 g ai/ha) was 10 and the “phytotoxicity rating AMARE” value ([11]; 63 g ai/ha) was 70. For the same compound, the “phytotoxicity rating AMARE” value ([11]; 250 g ai/ha) was 100, the “phytotoxicity rating CORN (crop damage)” value ([12]; 63 g ai/ha) was 0 and the “phytotoxicity rating CORN (crop damage)” value ([12]; 250 g ai/ha) was 10. The “phytotoxicity rating RICE (crop damage)” value ([13]; 63 g ai/ha) was 10, the “phytotoxicity rating RICE (crop damage)” value ([13]; 250 g ai/ha) was 50 and the DIGSA phytotoxicity rating ([14]; 63 g ai/ha) was 0. For the same compound, the DIGSA phytotoxicity rating ([14]; 250 g ai/ha) was 0, the AMBEL phytotoxicity rating ([15]; 63 g ai/ha) was 30 and the AMBEL phytotoxicity rating ([15]; 250 g ai/ha) was 80. It also gave an ECHCG phytotoxicity rating ([16]; 63 g ai/ha) of 0, an ECHCG phytotoxicity rating ([16]; 250 g ai/ha) of 0 and an SETVI phytotoxicity rating ([17]; 63 g ai/ha) of 0. The SETVI phytotoxicity rating ([17]; 250 g ai/ha) was 10, the IPOHE phytotoxicity rating ([18]; 63 g ai/ha) was 90 and the IPOHE phytotoxicity rating ([18]; 250 g ai/ha) was 100. The ABUTH phytotoxicity rating ([19]; 63 g ai/ha) was 60, the ABUTH phytotoxicity rating ([19]; 250 g ai/ha) was 100 and the CHEAL phytotoxicity rating ([20]; 63 g ai/ha) was 35. The CHEAL phytotoxicity rating ([20]; 250 g ai/ha) was 60, the CASOB phytotoxicity rating ([21]; 63 g ai/ha) was 50 and the CASOB phytotoxicity rating ([21]; 250 g ai/ha) was 90. The SORHA phytotoxicity rating ([22]; 63 g ai/ha) was 0, the SORHA phytotoxicity rating ([22]; 250 g ai/ha) was 0 and the AMARE phytotoxicity rating ([23]; 63 g ai/ha) was 60. It also gave an AMARE phytotoxicity rating ([23]; 250 g ai/ha) of 60.
